Consider one compound from patent US7169580B1, “Protein having PGE2 synthase activity and use thereof” (Chugai Seiyaku Kabushiki Kaisha, priority 2000, dated 2007).

Holding throughout (format): biochemical
One assay addresses T1, PGES-1 (Homo sapiens, UniProt Q15185).
T1 construct: the cDNA of full-length human progesterone receptor complex component protein p23 was isolated by RT-PCR; expressed in transfected cells; host or cells: HEK293
T1 sequence (Q15185 1-160): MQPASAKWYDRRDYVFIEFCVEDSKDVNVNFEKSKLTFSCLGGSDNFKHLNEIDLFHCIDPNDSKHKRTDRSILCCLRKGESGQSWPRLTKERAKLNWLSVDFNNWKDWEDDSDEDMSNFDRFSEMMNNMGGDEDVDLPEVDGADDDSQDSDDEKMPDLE
Description: PGES activity in lysate of HEK293 cells transfected with PGES-1 cDNA. To be noted: lysate of HEK293 cells transfected with PGES-1, coexistence of CDNB. On the procedure: (§1) PGES activity was measured as follows: Cells suspended in 20 mmol/L Tris-hydrochloride buffer (pH 7.4) were homogenized using ultrasonic homogenizer (Branson Sonifier Model 200) and centrifuged at 800×g for 5 minutes at 4° C., and the supernatant was used as the cell lysate in the following. 0.5 μg of PGH2 was added to the lysate, which was suspended with 0.1 mol/L Tris-hydrochloride buffer (pH 8.0) containing 1 mmol/L GSH, with a protein content of 10 μg, was incubated for 30 seconds at 24° C., and then 8 mmol/L FeCl2 was added to terminate the reaction. The amount of produced PGE2 was measured by Enzyme Immunoassay Kit (Cayman), and PGES activity was expressed as the amount of PGE2 produced per 30 seconds, per 10 μg of protein (ng/30 sec/10 μg protein).
Peptide mapping of PGES-1 protein was carried out using V8 protease, and 3 fragments among the peptide fragments were analyzed by N-terminal amino acid sequence analyzer to determine the partial amino acid sequence thereof. According to GenBank database search with one of these amino acid sequences, the sequence completely matched to a portion of a known sequence reported as the human progesterone receptor complex component protein p23 (Johnson, J L et al., Mol. Cell. Biol., 14:1956–63, 1994). […] Thus, the cDNA was confirmed to encode the desired PGES.

Assay [1] concerns the target T2, PGES activity of peak C (PGES-1) (Rattus norvegicus, UniProt P83868).
T2 construct: from tissue; host or cells: brain of LPS-administered rat: 100,000 x g supernatant, 60-80% ammonium sulfate, DEAE-Sephacel, Superdex 200 peak C
T2 sequence (P83868 1-160): T1 sequence (Q15185 1-160) with N128D, N129H
Description: PGES activity of Superdex 200 gel filtration fractions of rat brain soluble fraction. To be noted: Superdex 200 peak C (approximately 50 kDa), in contrast to peaks A and B. Here is the method:
as §1
150 μg/kg body LPS (Salmonella minnesota: Re595) was administered intravenously from rat tail. Rat brain was removed 2 days after the injection and was homogenized using Potter's homogenizer at 4° C. […]
A protein of a molecular weight of about 27 kDa, corresponding with the PGES activity (PGES-1), was obtained by SDS electrophoretic analysis of peak C (FIG. 3, bottom). The production of this protein was predicted to elevate in response to inflammatory stimulus due to the fact that large amount of the protein was detected in LPS-administered rats than in normal rats.

A further assay deals with T3, PGES-2 (Homo sapiens, UniProt O14684).
T3 construct: expressed in transfected cells; host or cells: HEK293
T3 sequence (O14684 1-152): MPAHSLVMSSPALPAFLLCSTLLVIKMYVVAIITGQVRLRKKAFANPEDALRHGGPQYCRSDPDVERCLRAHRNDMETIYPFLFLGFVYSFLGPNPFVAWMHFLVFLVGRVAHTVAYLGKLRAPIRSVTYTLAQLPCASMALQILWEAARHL
Description: PGES activity in HEK293 cells transfected with PGES-2. To be noted: HEK293 cells transfected with PGES-2, coexistence of CDNB. Here is the method: as §1

Molecules are shown by their SMILES. Where a chain is given by its changes, count along the chain named. Entries after “also recorded” stand apart in the source; their conditions may differ.

In the case of `O=[N+]([O-])c1ccc(Cl)c([N+](=O)[O-])c1` [CDNB, 1-chloro-2,4-dinitrobenzene], on PGES-1, the “effect of CDNB on GSH-dependent PGES activity of recombinant PGES-1” value was “CDNB sensitive; also recorded: suppressed”. In addition, the “effect of CDNB on PGES activity of peak C” value in assay [1] is on record as “strongly inhibited”. Besides, the “effect of CDNB on GSH-dependent PGES activity of recombinant PGES-2” value on PGES-2 is given as “CDNB insensitive; also recorded: not suppressed”.
